From US8772480B2, “Inhibitors of PI3 kinase and/or mTOR” (priority 2009, dated 2014)

Legend:
PI3Kα = PI3Kα (Homo sapiens (Human), UniProt P42336); conditions: read-out: PI3Kα AlphaScreen ® Ki
[1] = test system: phosphorylation of Akt at Serine 473 in U87 MG cells; test: cells; conditions: Homo sapiens, U-87 MG, 2 h, read-out: U87Cell IC50, pAkt (Ser 473), U87 MG cells, two hours with compound
Protocol: pAkt Aplhascreen (U87 Cell)
This assay was performed using U87 MG cells. […] The cells were maintained weekly using 0.05% Trypsin (Gibco) and replated in 150 mm TC—Treated Culture Dishes (Corning, Corning, N.Y.).
The first day of the assay, the adherent cells were trypsinized, media was added to the loose cells and cells were mixed to a homogenous mixture. 0.5 ml of the homogenous mixture was counted on the Beckman Coulter® Vi-CELL™ XR (Fullerton, Calif.). 50 frames of cells were counted and the number of viable cells was determined. The cells were then diluted to 0.25 million cells per ml, and centrifuged at 200 rcf for 5 minutes. The media was removed and the cells were reconstituted in fresh media for plating. The cells were plated at 20 μl per well on the PerkinElmer® FlexDrop PLUS in Low Volume 384 Well White Tissue Culture Plates (Corning) with a final cell density of 5K cells per well. The plates were incubated overnight at 37° Celsius, 5% CO2.
After two hours, the media in the cell plates was aspirated using the BioTek® ELx405HT plate washer (Winooski, Vt.) removing the majority of media and compound without disturbing the adherent U87 cells. […] The plates were then incubated at room temperature on a shaker for ten minutes. […] The AlphaScreen® reaction was added to the cell lysate at 6 μl per well using the PerkinElmer® FlexDrop PLUS. The plates were placed in a humid environment to reduce edge effects and incubated overnight at room temperature with restricted air flow in the dark.

Chain of PI3Kα (P42336 whole entry): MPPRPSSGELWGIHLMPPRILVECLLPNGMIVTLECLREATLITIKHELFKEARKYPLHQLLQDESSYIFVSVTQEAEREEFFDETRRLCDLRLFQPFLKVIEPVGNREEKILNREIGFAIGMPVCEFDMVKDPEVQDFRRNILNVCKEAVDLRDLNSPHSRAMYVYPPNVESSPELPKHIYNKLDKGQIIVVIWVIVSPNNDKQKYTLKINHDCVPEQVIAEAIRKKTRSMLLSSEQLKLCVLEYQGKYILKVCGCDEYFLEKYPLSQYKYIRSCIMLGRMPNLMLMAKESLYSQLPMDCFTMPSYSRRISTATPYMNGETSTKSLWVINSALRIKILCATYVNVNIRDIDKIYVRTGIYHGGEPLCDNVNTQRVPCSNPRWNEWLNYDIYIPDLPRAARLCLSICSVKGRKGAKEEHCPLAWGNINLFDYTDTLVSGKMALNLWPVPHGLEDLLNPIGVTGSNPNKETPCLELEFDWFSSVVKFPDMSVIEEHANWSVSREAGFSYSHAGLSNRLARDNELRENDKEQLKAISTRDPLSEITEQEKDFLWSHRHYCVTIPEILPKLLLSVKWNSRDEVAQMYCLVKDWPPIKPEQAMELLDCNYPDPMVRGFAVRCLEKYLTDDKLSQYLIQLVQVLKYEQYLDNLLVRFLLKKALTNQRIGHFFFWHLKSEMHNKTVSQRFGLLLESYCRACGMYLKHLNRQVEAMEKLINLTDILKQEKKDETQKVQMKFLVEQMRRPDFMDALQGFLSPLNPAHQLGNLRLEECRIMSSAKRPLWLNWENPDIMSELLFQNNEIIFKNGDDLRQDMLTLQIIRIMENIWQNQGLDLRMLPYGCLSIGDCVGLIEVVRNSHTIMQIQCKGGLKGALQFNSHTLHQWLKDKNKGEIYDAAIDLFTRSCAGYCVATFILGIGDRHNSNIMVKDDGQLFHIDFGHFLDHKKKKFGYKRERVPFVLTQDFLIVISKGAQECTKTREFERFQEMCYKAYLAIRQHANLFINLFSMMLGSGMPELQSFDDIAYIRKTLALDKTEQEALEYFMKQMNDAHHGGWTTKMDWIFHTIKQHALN
Chain of PI3Kα (P27986 whole entry partner): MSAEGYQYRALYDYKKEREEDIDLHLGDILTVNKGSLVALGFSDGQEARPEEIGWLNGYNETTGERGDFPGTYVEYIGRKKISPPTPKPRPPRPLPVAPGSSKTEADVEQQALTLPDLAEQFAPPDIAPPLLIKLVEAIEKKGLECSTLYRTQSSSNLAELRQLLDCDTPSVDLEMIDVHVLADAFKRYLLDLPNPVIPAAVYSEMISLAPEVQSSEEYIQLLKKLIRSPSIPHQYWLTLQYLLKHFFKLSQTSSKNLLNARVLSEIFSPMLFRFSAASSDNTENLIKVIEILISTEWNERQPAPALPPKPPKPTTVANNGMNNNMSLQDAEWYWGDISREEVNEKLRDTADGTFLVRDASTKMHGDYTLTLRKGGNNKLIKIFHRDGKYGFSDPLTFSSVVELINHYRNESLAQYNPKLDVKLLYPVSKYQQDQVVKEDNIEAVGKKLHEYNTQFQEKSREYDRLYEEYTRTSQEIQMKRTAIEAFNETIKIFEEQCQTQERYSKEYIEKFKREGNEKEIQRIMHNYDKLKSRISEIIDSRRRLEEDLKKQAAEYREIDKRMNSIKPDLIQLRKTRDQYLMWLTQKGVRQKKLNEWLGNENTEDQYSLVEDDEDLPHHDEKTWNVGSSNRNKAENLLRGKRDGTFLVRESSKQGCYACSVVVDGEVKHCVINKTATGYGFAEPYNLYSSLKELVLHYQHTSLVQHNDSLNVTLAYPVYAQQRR

| Structure (SMILES) | Ki (PI3Kα) [nM] | IC50 [1] [nM] |
| --- | --- | --- |
| COc1ccc(Nc2ncc(-c3ccnnc3)cc2-c2nc(C)nc(N)n2)cn1 [Example 252, 4-(2-(6-Methoxypyridin-3-Ylamino)-5-(Pyridazin-4-yl)Pyridin-3-yl)-6-Methyl-1,3,5-Triazin-2-Amine] | 60 | 151 |
| COc1ccc(Nc2ncc(-c3cncc(F)c3)cc2-c2nc(C)nc(N)n2)cn1 [Example 253, 5-(4-Amino-6-Methyl-1,3,5-Triazin-2-yl)-5′-Fluoro-N-(6-Methoxypyridin-3-yl)-3,3′-Bipyridin-6-Amine] | 12 | 280 |
| COc1ccc(Nc2nc(-c3cccnc3)ccc2-c2nc(C)nc(N)n2)cn1 [Example 254, 5-(4-Amino-6-Methyl-1,3,5-Triazin-2-yl)-N-(6-Methoxypyridin-3-yl)-2,3′-Bipyridin-6-Amine] | 67 | 583 |
| COc1ncc(Nc2nc(-c3cccnc3)ccc2-c2nc(C)nc(N)n2)cc1F [Example 255, 5-(4-Amino-6-Methyl-1,3,5-Triazin-2-yl)-N-(5-Fluoro-6-Methoxypyridin-3-yl)-2,3′-Bipyridin-6-Amine] | 4 | 37 |
| Cc1nc(N)nc(-c2cc(Cl)cnc2Nc2cncc(F)c2)n1 [Example 257, 4-(5-Chloro-2-(5-Fluoropyridin-3-Ylamino)Pyridin-3-yl)-6-Methyl-1,3,5-Triazin-2-Amine] | 426 | > 10000 |
| Cc1nc(N)nc(-c2cc(-c3cnn(C)c3)cnc2Nc2cncc(F)c2)n1 [Example 258, 4-(2-(5-Fluoropyridin-3-Ylamino)-5-(1-Methyl-1H-Pyrazol-4-yl)Pyridin-3-yl)-6-Methyl-1,3,5-Triazin-2-Amine] | 14 | 192 |
| COCCOc1ccc(-c2nc(C)nc(N)n2)c(Nc2cnc(OC)c(F)c2)n1 [Example 259, 4-(2-(5-Fluoro-6-Methoxypyridin-3-Ylamino)-6-(2-Methoxyethoxy)Pyridin-3-yl)-6-Methyl-1,3,5-Triazin-2-Amine] | 81 | 190 |
| Cc1nc(N)nc(-c2cc(CN3CCN(S(C)(=O)=O)CC3)cnc2Nc2ccc3[nH]cnc3c2)n1 [Example 260, N-(3-(4-Amino-6-Methyl-1,3,5-Triazin-2-yl)-5-((4-(Methylsulfonyl)Piperazin-1-yl)Methyl)Pyridin-2-yl)-1H-Benzo[D]Imidazol-5-Amine] | 16 | 1030 |
| Cc1nc(N)nc(-c2cc(CN3CCNCC3)cnc2Nc2ccc3[nH]cnc3c2)n1 [Example 261, N-(3-(4-Amino-6-Methyl-1,3,5-Triazin-2-yl)-5-(Piperazin-1-Ylmethyl)Pyridin-2-yl)-1H-Benzo[D]Imidazol-5-Amine] | 69 | 2720 |
| COc1ccc(Nc2ncc(OC(F)F)cc2-c2nc(C)nc(N)n2)cn1 [Example 262, 4-(5-(Difluoromethoxy)-2-(6-Methoxypyridin-3-Ylamino)Pyridin-3-yl)-6-Methyl-1,3,5-Triazin-2-Amine] | 47 | 180 |
| Cc1nc(N)nc(-c2cccnc2Nc2cc[nH]c(=O)c2)n1 [Example 263, 4-(3-(4-Amino-6-Methyl-1,3,5-Triazin-2-yl)Pyridin-2-Ylamino)Pyridin-2(1H)-One] | 643 | > 10000 |
| CC(=O)Nc1ccc(Nc2ncc(Cl)cc2-c2nc(C)nc(N)n2)cc1F [Example 266, N-(4-(3-(4-Amino-6-Methyl-1,3,5-Triazin-2-yl)-5-Chloropyridin-2-Ylamino)-2-Fluorophenyl)Acetamide] | 155 | 1100 |
| CC(=O)Nc1ccc(Nc2ncc(CN3CCN(S(C)(=O)=O)CC3)cc2-c2nc(C)nc(N)n2)cc1F [Example 267, N-(4-(3-(4-Amino-6-Methyl-1,3,5-Triazin-2-yl)-5-((4-(Methylsulfonyl)Piperazin-1-yl)Methyl)Pyridin-2-Ylamino)-2-Fluorophenyl)Acetamide] | 369 | 486 |
| CC(=O)Nc1ccc(Nc2ncc(CN3CCN(S(C)(=O)=O)CC3)cc2-c2nc(C)nc(N)n2)cc1 [Example 268, N-(4-(3-(4-Amino-6-Methyl-1,3,5-Triazin-2-yl)-5-((4-(Methylsulfonyl)Piperazin-1-yl)Methyl)Pyridin-2-Ylamino)Phenyl)Acetamide] | 103 | 739 |
| COc1ncc(Nc2ncc([C@H](C)N3CCOCC3)cc2-c2cc(N)nc(C)n2)cc1F [Example 275, 6-(2-((5-Fluoro-6-Methoxy-3-Pyridinyl)Amino)-5-((1S)-1-(4-Morpholinyl)Ethyl)-3-Pyridinyl)-2-Methyl-4-Pyrimidinamine] | 32 | 18 |
| COc1ncc(Nc2ncc([C@@H](C)N3CCOCC3)cc2-c2cc(N)nc(C)n2)cc1F [Example 276, 6-(2-((5-Fluoro-6-Methoxy-3-Pyridinyl)Amino)-5-((1R)-1-(4-Morpholinyl)Ethyl)-3-Pyridinyl)-2-Methyl-4-Pyrimidinamine] | 17 | 91 |

| Structure (SMILES) | Ki (PI3Kα) [nM] | IC50 [1] [nM] |
| --- | --- | --- |
| COc1ccc(Nc2ncc(C(C)(C)N)cc2-c2nc(C)nc(N)n2)cn1 [Example 277, 4-(5-(2-Aminopropan-2-yl)-2-(6-Methoxypyridin-3-Ylamino)Pyridin-3-yl)-6-Methyl-1,3,5-Triazin-2-Amine] | 56 | 170 |
| COc1ncc(Nc2ncc(C(C)(C)N)cc2-c2nc(C)nc(N)n2)cc1F [Example 278, 4-(5-(2-Aminopropan-2-yl)-2-(5-Fluoro-6-Methoxypyridin-3-Ylamino)Pyridin-3-yl)-6-Methyl-1,3,5-Triazin-2-Amine] | 45 | 24 |
| COc1ccc(Nc2ncc(C(C)(C)N3CCN(S(C)(=O)=O)CC3)cc2-c2nc(C)nc(N)n2)cn1 [Example 279, 4-(2-(6-Methoxypyridin-3-Ylamino)-5-(2-(4-(Methylsulfonyl)Piperazin-1-yl)Propan-2-yl)Pyridin-3-yl)-6-Methyl-1,3,5-Triazin-2-Amine] | 11 | 34 |
| COc1ncc(Nc2ncc(C(C)(C)N3CCOCC3)cc2-c2nc(C)nc(N)n2)cc1F [Example 281, 4-(2-(5-Fluoro-6-Methoxypyridin-3-Ylamino)-5-(2-Morpholinopropan-2-yl)Pyridin-3-yl)-6-Methyl-1,3,5-Triazin-2-Amine] | 6 | 16 |
| COc1ccc(Nc2ncc(C3(N4CCN(S(C)(=O)=O)CC4)CC3)cc2-c2nc(C)nc(N)n2)cn1 [Example 282, 4-(2-(6-Methoxypyridin-3-Ylamino)-5-(1-(4-(Methylsulfonyl)Piperazin-1-yl)Cyclopropyl)Pyridin-3-yl)-6-Methyl-1,3,5-Triazin-2-Amine] | 7 | 26 |
| COc1ncc(Nc2ncc(C(C)N3CCN(S(C)(=O)=O)CC3)nc2-c2cc(N)nc(C)n2)cc1F (centres unmarked) [Example 283, 6-(3-(5-Fluoro-6-Methoxypyridin-3-Ylamino)-6-(1-(4-(Methylsulfonyl)Piperazin-1-yl)Ethyl)Pyrazin-2-yl)-2-Methylpyrimidin-4-Amine] | 3 | 4 |
| COc1ncc(Nc2ncc(C(C)(C)O)nc2-c2cc(N)nc(C)n2)cc1F [Example 284, 2-(6-(6-Amino-2-Methylpyrimidin-4-yl)-5-(5-Fluoro-6-Methoxypyridin-3-Ylamino)Pyrazin-2-yl)Propan-2-ol] | 31 | 63 |
| COc1ccc(Nc2ncc(C(C)=O)nc2-c2cc(N)nc(C)n2)cn1 [Example 285, 1-(6-(6-Amino-2-Methylpyrimidin-4-yl)-5-(6-Methoxypyridin-3-Ylamino)Pyrazin-2-yl)Ethanone] | 103 | > 10000 |
| COc1ccc(Nc2ncc(C(C)N3CCN(S(C)(=O)=O)CC3)nc2-c2cc(N)nc(C)n2)cn1 (centres unmarked) [Example 286, 6-(3-(6-Methoxypyridin-3-Ylamino)-6-(1-(4-(Methylsulfonyl)Piperazin-1-yl)Ethyl)Pyrazin-2-yl)-2-Methylpyrimidin-4-Amine] | 11 | 111 |
| Cc1nc(N)nc(-c2cc([C@@H](C)N3CCN(S(C)(=O)=O)CC3)cnc2Nc2cc(F)c3cccnc3c2)n1 [Example 287, (R)—N-(3-(4-Amino-6-Methyl-1,3,5-Triazin-2-yl)-5-(1-(4-(Methylsulfonyl)Piperazin-1-yl)Ethyl)Pyridin-2-yl)-5-Fluoroquinolin-7-Amine] | 20 | 204 |
| Cc1nc(N)nc(-c2cc(C(C)N3CCOCC3)cnc2Nc2ccc3scnc3c2)n1 (centres unmarked) [Example 288, N-(3-(4-Amino-6-Methyl-1,3,5-Triazin-2-yl)-5-(1-Morpholinoethyl)Pyridin-2-yl)Benzo[D]Thiazol-5-Amine] | 45 | 33 |
| Cc1nc(N)nc(-c2cc(C(C)N3CCN(C(=O)N(C)C)CC3)cnc2Nc2ccc3scnc3c2)n1 (centres unmarked) [Example 289, 4-(1-(5-(4-Amino-6-Methyl-1,3,5-Triazin-2-yl)-6-(Benzo[D]Thiazol-5-Ylamino)Pyridin-3-yl)Ethyl)-N,N-Dimethylpiperazine-1-Carboxamide] | 60 | 111 |
| Cc1nc(N)nc(-c2cc(C(C)N3CCN(S(C)(=O)=O)CC3)cnc2Nc2ccc3scnc3c2)n1 (centres unmarked) [Example 290, N-(3-(4-Amino-6-Methyl-1,3,5-Triazin-2-yl)-5-(1-(4-(Methylsulfonyl)Piperazin-1-yl)Ethyl)Pyridin-2-yl)Benzo[D]Thiazol-5-Amine] | 24 | 45 |
| Cc1nc(N)nc(-c2cc([C@@H](C)N3CCN(S(C)(=O)=O)C[C@@H]3C)cnc2Nc2ccc3scnc3c2)n1 [Example 293, N-(3-(4-Amino-6-Methyl-1,3,5-Triazin-2-yl)-5-((R)-1-((S)-2-Methyl-4-(Methylsulfonyl)Piperazin-1-yl)Ethyl)Pyridin-2-yl)Benzo[D]Thiazol-5-Amine] | 4 | 24 |
| COc1ncc(Nc2ncc(C(C)N3CCN(C(=O)N(C)C)CC3)cc2-c2nc(C)nc(N)n2)cc1F (centres unmarked) [Example 294, 4-(1-(5-(4-Amino-6-Methyl-1,3,5-Triazin-2-yl)-6-(5-Fluoro-6-Methoxypyridin-3-Ylamino)Pyridin-3-yl)Ethyl)-N,N-Dimethylpiperazine-1-Carboxamide] | 12 | 90 |
